Results from patent publication US11547681B2, “N-acylethanolamide derivatives and uses thereof” (ELIEM THERAPEUTICS, INC., priority 2016, dated 2023).
Read-outs that look alike come from different tables or passages of the source.

Test: Simulated intestinal fluid (SIF) stability in the presence of various enzymes
Assay type: in vitro ADME
Details: 1 μM
Description: (§1) Studies were carried out in simulated intestinal fluid in the presence of various enzymes. Simulated intestinal fluid was prepared by dissolving 6.8 g of monobasic potassium phosphate in 1.0 L of water. Aliquots of this solution were taken and the pH was adjusted to 6.8. Individual enzymes were then spiked into aliquots for each experiment. A DMSO stock was first prepared for the test article. Aliquots of the DMSO solution were dosed into 700 μL of matrix, which had been pre-warmed to 37° C., at a final test article concentration of 1 μM. […] Samples were stored at 4° C. until the end of the experiment. After the final time point was sampled, the plate was mixed and then centrifuged at 3,000 rpm for 10 minutes. Calibration standards were prepared in matched matrix. […] Analytical conditions are outlined in Appendix 8-1.
as §1, with “10-1.” for “8-1.”
Studies were carried out in simulated intestinal fluid in the presence of various enzymes. Simulated intestinal fluid was prepared by dissolving 6.8 g of monobasic potassium phosphate in 1.0 L of water. Aliquots of this solution were taken and the pH was adjusted to 6.8. Individual enzymes were then spiked into aliquots for each experiment. A DMSO stock was first prepared for test article. Aliquots of the DMSO solution were dosed into 700 μL of matrix, which had been pre-warmed to 37° C., at a final test article concentration of 1 μM. […] Samples were stored at 4° C. until the end of experiment. After final time point was sampled, the plate was mixed and then centrifuged at 3,000 rpm for 10 minutes. Calibration standards were prepared in matched matrix. […] Analytical conditions are outlined in Appendix 13-1.
as §1, with “17-1.” for “8-1.”

[1] = SIF + Carboxypeptidase A, 0 min
[2] = SIF + Carboxypeptidase A, 15 min
[3] = SIF + Carboxypeptidase A, 30 min
[4] = SIF + Carboxypeptidase A, 60 min
[5] = SIF + Carboxypeptidase A, 120 min
[6] = SIF + Carboxypeptidase B, 0 min
[7] = SIF + Carboxypeptidase B, 15 min
[8] = SIF + Carboxypeptidase B, 30 min
[9] = SIF + Carboxypeptidase B, 60 min
[10] = SIF + Carboxypeptidase B, 120 min
[11] = simulated intestinal fluid with carboxypeptidase A, pH 6.8, SIF + Carboxypeptidase A, read-out: Half-life
[12] = simulated intestinal fluid with carboxypeptidase B, pH 6.8, SIF + Carboxypeptidase B, read-out: Half-life
[13] = simulated intestinal fluid with chymotrypsin, pH 6.8, SIF + Chymotrypsin, read-out: Half-life
[14] = simulated intestinal fluid with elastase, pH 6.8, SIF + Elastase, read-out: Half-life
[15] = simulated intestinal fluid with pancreatin, pH 6.8, SIF + Pancreatin, read-out: Half-life
[16] = simulated intestinal fluid with trypsin, pH 6.8, SIF + Trypsin, read-out: Half-life

SMILES | % Remaining of Initial (n = 1) [1] | % Remaining of Initial (n = 1) [2] | % Remaining of Initial (n = 1) [3] | % Remaining of Initial (n = 1) [4] | % Remaining of Initial (n = 1) [5] | % Remaining of Initial (n = 1) [6] | % Remaining of Initial (n = 1) [7] | % Remaining of Initial (n = 1) [8] | % Remaining of Initial (n = 1) [9] | % Remaining of Initial (n = 1) [10] | % Remaining of Initial (n = 1) (SIF + Chymotrypsin, 0 min) | % Remaining of Initial (n = 1) (SIF + Chymotrypsin, 15 min) | % Remaining of Initial (n = 1) (SIF + Chymotrypsin, 30 min) | % Remaining of Initial (n = 1) (SIF + Chymotrypsin, 60 min) | % Remaining of Initial (n = 1) (SIF + Chymotrypsin, 120 min) | % Remaining of Initial (n = 1) (SIF + Elastase, 0 min) | % Remaining of Initial (n = 1) (SIF + Elastase, 15 min) | % Remaining of Initial (n = 1) (SIF + Elastase, 30 min) | % Remaining of Initial (n = 1) (SIF + Elastase, 60 min) | % Remaining of Initial (n = 1) (SIF + Elastase, 120 min) | also measured
CCCCCCCCCCCCCCCC(=O)NCCOC(=O)CCC [Compound I-2] | 100% | 79% | 70% | 56% | 43% | 100% | 75% | 54% | 40% | 17% | 100% | 78% | 70% | 60% | 58% | 100% | 61% | 42% | 30% | 28% | % Remaining of Initial (n = 1) (SIF + Pancreatin, 0 min): 100%; % Remaining of Initial (n = 1) (SIF + Pancreatin, 15 min): 93%; % Remaining of Initial (n = 1) (SIF + Pancreatin, 30 min): 91%; % Remaining of Initial (n = 1) (SIF + Pancreatin, 60 min): 98%; % Remaining of Initial (n = 1) (SIF + Pancreatin, 120 min): 60%; % Remaining of Initial (n = 1) (SIF + Trypsin, 0 min): 100%; % Remaining of Initial (n = 1) (SIF + Trypsin, 15 min): 82%; % Remaining of Initial (n = 1) (SIF + Trypsin, 30 min): 72%; % Remaining of Initial (n = 1) (SIF + Trypsin, 60 min): 75%; % Remaining of Initial (n = 1) (SIF + Trypsin, 120 min): 46%; half-life at 1 μM [11]: 92 min; half-life at 1 μM [12]: 43 min; half-life at 1 μM (simulated intestinal fluid with chymotrypsin, pH 6.8, SIF + Chymotrypsin, outside the sampled time range, read-out: Half-life, calculated (in parentheses)): 144 min; half-life at 1 μM [13]: > 120 min; half-life at 1 μM [14]: 37 min; half-life at 1 μM (simulated intestinal fluid with pancreatin, pH 6.8, SIF + Pancreatin, outside the sampled time range, read-out: Half-life, calculated (in parentheses)): 205 min; half-life at 1 μM [15]: > 120 min; half-life at 1 μM (simulated intestinal fluid with trypsin, pH 6.8, SIF + Trypsin, outside the sampled time range, read-out: Half-life, calculated (in parentheses)): 121 min; half-life at 1 μM [16]: > 120 min
CCCCCCCCCCCCCCCC(=O)NCCOC(=O)CCC(=O)OCC(COC(=O)CCCCCCC)OC(=O)CCCCCCC (stereo not drawn) [Compound I-3, PEA-Succinate-Glycerol-Di-Caprylic] | 100% | 76% | 66% | 36% | 20% | 100% | 86% | 77% | 41% | 15% | 100% | 102% | 84% | 61% | 53% | 100% | 94% | 61% | 44% | 29% | % Remaining of Initial (n = 1) (SIF + Pancreatin, 0 min): 100%; % Remaining of Initial (n = 1) (SIF + Pancreatin, 15 min): <1.0%; % Remaining of Initial (n = 1) (SIF + Pancreatin, 30 min): <1.0%; % Remaining of Initial (n = 1) (SIF + Pancreatin, 60 min): <1.0%; % Remaining of Initial (n = 1) (SIF + Pancreatin, 120 min): <1.0%; % Remaining of Initial (n = 1) (SIF + Trypsin, 0 min): 100%; % Remaining of Initial (n = 1) (SIF + Trypsin, 15 min): 67%; % Remaining of Initial (n = 1) (SIF + Trypsin, 30 min): 60%; % Remaining of Initial (n = 1) (SIF + Trypsin, 60 min): 55%; % Remaining of Initial (n = 1) (SIF + Trypsin, 120 min): 43%; half-life at 1 μM [11]: 46 min; half-life at 1 μM [12]: 49 min; half-life at 1 μM [13]: 107 min; half-life at 1 μM [14]: 55 min; half-life at 1 μM [15]: < 1 min; half-life at 1 μM [16]: 93 min
CC/C=C\C/C=C\C/C=C\C/C=C\C/C=C\CCCC(=O)OCCNC(=O)CCCCCCCCCCCCCCC [Compound I-5] | 100% | 84% | 63% | 39% | 15% | 100% | 94% | 62% | 43% | 14% | 100% | 75% | 59% | 37% | 23% | 100% | 103% | 70% | 48% | 35% | % Remaining of Initial (n = 1) (SIF + Pancreatin, 0 min): 100%; % Remaining of Initial (n = 1) (SIF + Pancreatin, 15 min): 13%; % Remaining of Initial (n = 1) (SIF + Pancreatin, 30 min): <1.0%; % Remaining of Initial (n = 1) (SIF + Pancreatin, 60 min): <1.0%; % Remaining of Initial (n = 1) (SIF + Pancreatin, 120 min): <1.0%; % Remaining of Initial (n = 1) (SIF + Trypsin, 0 min): 100%; % Remaining of Initial (n = 1) (SIF + Trypsin, 15 min): 81%; % Remaining of Initial (n = 1) (SIF + Trypsin, 30 min): 67%; % Remaining of Initial (n = 1) (SIF + Trypsin, 60 min): 44%; % Remaining of Initial (n = 1) (SIF + Trypsin, 120 min): 26%; half-life at 1 μM [11]: 44 min; half-life at 1 μM [12]: 45 min; half-life at 1 μM [13]: 47 min; half-life at 1 μM [14]: 65 min; half-life at 1 μM [15]: 5.1 min; half-life at 1 μM [16]: 56 min
